Assay results published in patent US9505769B2 (ASCENEURON SA, priority 2013, dated 2016).
pEC50: −log10 of the molar value.

biological target: T1, human muscarinic acetylcholine M1 receptor (Homo sapiens, UniProt P11229); experiment: M1 PAM Assay (IP-One HTRF, IP1 accumulation in M1-CHO cells); format: cell-based; settings: not given
T1 construct: expressed in transfected cells; host or cells: CHO-K1
T1 sequence (P11229 1-460): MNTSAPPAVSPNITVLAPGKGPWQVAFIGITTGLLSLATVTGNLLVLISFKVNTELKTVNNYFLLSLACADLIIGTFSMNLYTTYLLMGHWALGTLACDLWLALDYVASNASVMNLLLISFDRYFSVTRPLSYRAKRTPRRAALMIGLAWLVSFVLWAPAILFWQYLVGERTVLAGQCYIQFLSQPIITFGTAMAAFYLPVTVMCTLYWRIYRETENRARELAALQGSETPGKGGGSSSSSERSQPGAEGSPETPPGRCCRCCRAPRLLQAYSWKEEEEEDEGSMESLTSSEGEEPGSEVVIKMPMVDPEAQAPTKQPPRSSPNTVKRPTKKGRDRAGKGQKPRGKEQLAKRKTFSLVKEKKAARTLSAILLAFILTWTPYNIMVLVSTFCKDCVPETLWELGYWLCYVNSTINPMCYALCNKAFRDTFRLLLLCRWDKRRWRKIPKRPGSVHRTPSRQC
Experimental: Then diluted compounds (0.6% DMSO final concentration) are added together with EC20 of acetylcholine and incubated with the cells for 30 min at 37° C., 5% CO2.
CHO-K1 cells stably transfected with human muscarinic acetylcholine M1 receptor are cultured in Ham's F12 medium containing 10% heat inactivated fetal calf serum, 2 mM L-glutamine and Penicillin-Streptomycin grown in a humidified atmosphere at 5% CO2/95% air at 37° C.

Row | Molecule | pEC50
1 | CC(O)CN1[C@@H]2CC[C@H]1C[C@@H](Oc1cc(F)ccc1C(=O)N1Cc3nn4cc(Cl)cnc4c3C1)C2 (stereo partly drawn) [Example 73, (3-chloro-7H-pyrrolo[3′,4′:3,4]pyrazolo[1,5-a]pyrimidin-8(9H)-yl)(4-fluoro-2-{[(3-endo)-8-(2-hydroxypropyl)-8-azabicyclo[3.2.1]oct-3-yl]oxy}phenyl)methanone] | 6.00 to 6.70
2 | O=C(c1ccc(F)cc1O[C@H]1C[C@H]2CC[C@@H](C1)N2CCF)N1Cc2nn3cc(Cl)cnc3c2C1 (single isomer, unassigned) [Example 51, (3-chloro-7H-pyrrolo[3′,4′:3,4]pyrazolo[1,5-a]pyrimidin-8(9H)-yl)(4-fluoro-2-{[(3-endo)-8-(2-fluoroethyl)-8-azabicyclo[3.2.1]oct-3-yl]oxy}phenyl)methanone] | > 6.70
3 | CCCN1[C@@H]2CC[C@H]1C[C@@H](Oc1cc(F)ccc1C(=O)N1Cc3nn4cc(Cl)cnc4c3C1)C2 [Example 64, (3-chloro-7H-pyrrolo[3′,4′:3,4]pyrazolo[1,5-a]pyrimidin-8(9H)-yl)(4-fluoro-2-{[(3-endo)-8-propyl-8-azabicyclo[3.2.1]oct-3-yl]oxy}phenyl)methanone] | > 6.70
4 | CN1[C@@H]2CC[C@H]1C[C@@H](Oc1cc(F)ccc1C(=O)N1Cc3nn4cc(Cl)cnc4c3C1)C2 [Example 53, (3-chloro-7H-pyrrolo[3′,4′:3,4]pyrazolo[1,5-a]pyrimidin-8(9H)-yl)(4-fluoro-2-{[(3-endo)-8-methyl-8-azabicyclo[3.2.1]oct-3-yl]oxy}phenyl)methanone] | > 6.70
5 | CN1C2CC(Oc3cc(F)ccc3C(=O)N3Cc4nn5cc(Cl)cnc5c4C3)CC1[C@@H](O)C2 (mixture of isomers) [Example 69, (3-chloro-7H-pyrrolo[3′,4′:3,4]pyrazolo[1,5-a]pyrimidin-8(9H)-yl)(4-fluoro-2-(((3-endo)-(6-exo)-6-hydroxy-8-methyl-8-azabicyclo[3.2.1]octan-3-yl)oxy)phenyl)methanone] | > 6.70

same assay, conditions: CHO-K1 cells stably transfected with human M1 receptor; compounds added with EC20 of acetylcholine (25 nM), 30 min; intracellular IP1 by IP-One HTRF; read-out: M1 PAM EC50

Row | Molecule | pEC50
6 | Cc1nc2c3c(nn2c(C)c1Cl)CN(C(=O)c1ccccc1C(C)N1CCN(C)CC1)C3 (stereo not drawn) [Example 7, (3-chloro-2,4-dimethyl-7H-pyrrolo[3′,4′:3,4]pyrazolo[1,5-a]pyrimidin-8(9H)-yl)(2-(1-(4-methylpiperazin-1-yl)ethyl)phenyl)methanone] | 5.52 to 6.00
7 | Cc1ccc(CCOc2cc(F)ccc2C(=O)N2Cc3nn4c(C)c(Cl)c(C)nc4c3C2)cn1 [Example 42, (3-chloro-2,4-dimethyl-7H-pyrrolo[3′,4′:3,4]pyrazolo[1,5-a]pyrimidin-8(9H)-yl)(4-fluoro-2-(2-(6-methylpyridin-3-yl)ethoxy)phenyl)methanone] | 6.00 to 6.70
8 | Cc1nc2c3c(nn2c(C)c1Cl)CN(C(=O)c1ccc(F)cc1O[C@@H]1CCNC1=O)C3 [Example 11, (R)-3-(2-(3-chloro-2,4-dimethyl-8,9-dihydro-7H-pyrrolo[3′,4′:3,4]pyrazolo[1,5-a]pyrimidine-8-carbonyl)-5-fluorophenoxy)pyrrolidin-2-one] | 6.00 to 6.70
9 | (syn)-(6-Chloro-5,7-dimethyl-1H,3H-2,4,7a,8-tetraaza-cyclopenta[a]inden-2-yl)-[4-fluoro-2-(4-fluoro-cyclohexyloxy)-phenyl]-methanone or (anti)-(6-Chloro-5,7-dimethyl-1H,3H-2,4,7a,8-tetraaza-cyclopenta[a]inden-2-yl)-[4-fluoro-2-(4-fluoro-cyclohexyloxy)-phenyl]-methanone [Example 54] | 5.52 to 6.00
10 | CCOC(=O)N1CCC(Oc2cc(F)ccc2C(=O)N2Cc3nn4c(C)c(Cl)c(C)nc4c3C2)CC1 [Example 28, 4-[2-(6-Chloro-5,7-dimethyl-1H,3H-2,4,7a,8-tetraaza-cyclopenta[a]indene-2-carbonynl)-5-fluoro-phenoxy]-piperidine-1-carboxylic acid ethyl ester] | 5.52 to 6.00
11 | Cc1nc2c3c(nn2c(C)c1Cl)CN(C(=O)c1ccccc1O[C@H]1COC[C@@H]1O)C3 (racemic) [Example 21, (anti)-(3-chloro-2,4-dimethyl-7H-pyrrolo[3′,4′:3,4]pyrazolo[1,5-a]pyrimidin-8(9H)-yl)(2-((4-hydroxytetrahydrofuran-3-yl)oxy)phenyl)methanone] | 5.52 to 6.00
12 | Cc1nc2c3c(nn2c(C)c1Cl)CN(C(=O)c1ccc(F)cc1O[C@H]1CCN(C)C[C@@H]1F)C3 (racemic) [Example 2, (anti)-(3-chloro-2,4-dimethyl-7H-pyrrolo[3′,4′:3,4]pyrazolo[1,5-a]pyrimidin-8(9H)-yl)(4-fluoro-2-((-3-fluoro-1-methylpiperidin-4-yl)oxy)phenyl)methanone] | 6.00 to 6.70
